Patent US20260184710A1, “CASITAS B-LINEAGE LYMPHOMA PROTOONCOGENE B (CBL-B) DEGRADING COMPOUNDS AND ASSOCIATED METHODS OF USE” (Arvinas Operations, Inc., priority 2022, published 2026)

Biological target: T1, Cbl-b (Homo sapiens, UniProt Q13191)
T1 construct: Cbl-b-HiBit KI Jurkat Cells were purchased from Promega; host or cells: Cbl-b-HiBiT knock-in Jurkat cells
Test: Cbl-b Degradation Method B (Nano-Glo HiBiT lytic detection)
Type: cell-based
Conditions: Cbl-b-HiBit KI Jurkat Cells, incubated at least 6-24 hours; for DC50: half maximal degradation, read-out: Cbl-b Degredation Method B IC50; for Dmax: maximum degradation observed, read-out: Cbl-b Degredation Method B Dmax (%)
Outline: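 An 11-point, 3-fold compound dilution was applied for 6-24 hours to Jurkat cells carrying HiBiT-tagged endogenous Cbl-b. Lytic HiBiT luminescence quantified residual protein. Outputs are DC50 and Dmax relative to DMSO control.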

T1 sequence (Q13191 whole entry): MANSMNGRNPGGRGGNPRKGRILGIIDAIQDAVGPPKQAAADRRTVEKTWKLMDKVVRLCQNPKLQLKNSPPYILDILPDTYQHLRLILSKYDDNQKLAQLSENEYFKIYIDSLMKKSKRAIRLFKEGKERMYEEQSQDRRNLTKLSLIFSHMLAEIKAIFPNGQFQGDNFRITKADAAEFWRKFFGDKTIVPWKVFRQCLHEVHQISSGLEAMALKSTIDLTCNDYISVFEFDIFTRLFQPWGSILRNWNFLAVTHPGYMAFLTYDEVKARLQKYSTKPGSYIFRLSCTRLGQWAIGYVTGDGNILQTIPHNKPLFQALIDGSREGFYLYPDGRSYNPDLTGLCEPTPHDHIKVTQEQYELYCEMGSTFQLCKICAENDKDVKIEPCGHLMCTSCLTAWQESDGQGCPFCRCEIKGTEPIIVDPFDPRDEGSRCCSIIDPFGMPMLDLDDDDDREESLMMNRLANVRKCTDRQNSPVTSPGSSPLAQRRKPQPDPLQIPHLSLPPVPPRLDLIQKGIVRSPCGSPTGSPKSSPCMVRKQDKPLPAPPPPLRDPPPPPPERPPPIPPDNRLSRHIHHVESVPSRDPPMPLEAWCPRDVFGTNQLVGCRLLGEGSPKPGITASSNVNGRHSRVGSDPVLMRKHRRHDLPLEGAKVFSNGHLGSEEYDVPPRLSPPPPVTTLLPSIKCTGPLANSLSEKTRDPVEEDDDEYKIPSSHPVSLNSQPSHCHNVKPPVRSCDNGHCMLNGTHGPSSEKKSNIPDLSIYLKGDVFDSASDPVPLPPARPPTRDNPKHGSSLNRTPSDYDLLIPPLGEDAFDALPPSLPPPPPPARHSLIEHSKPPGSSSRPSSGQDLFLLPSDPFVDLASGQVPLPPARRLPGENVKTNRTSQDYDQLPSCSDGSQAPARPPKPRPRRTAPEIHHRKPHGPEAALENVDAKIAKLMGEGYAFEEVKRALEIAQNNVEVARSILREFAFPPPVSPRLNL

In the case of `CC1c2nc(N3CCC(O[C@H]4CC[C@H](CN5CCCN(c6cc7c(c(C(F)(F)F)c6)CN(c6cccc([C@]8(Cc9nncn9C)C[C@@H](C#N)C8)c6)C7=O)CC5)CC4)CC3)ccc2C(=O)N1C1CCC(=O)NC1=O` (stereo partly shown) [Example 180, (1r,3r)-3-[(4-methyl-4H-1,2,4-triazol-3-yl)methyl]-3-{3-[1-oxo-6-(4-{[(1r,4r)-4-({1-[6-(2,6-dioxopiperidin-3-yl)-7-methyl-5-oxo-5H,6H,7H-pyrrolo[3,4-b]pyridin-2-yl]piperidin-4-yl}oxy)cyclohexyl]methyl}-1,4-diazepan-1-yl)-4-(trifluoromethyl)-2,3-dihydro-1H-isoindol-2-yl]phenyl}cyclobutane-1-carbonitrile], the DC50 is reported as under 5 nM and the Dmax is reported as under 35%.
`C[C@H]1CN(CC2CCC(OC3CCN(c4ccc5c(c4F)CN(C4CCC(=O)NC4=O)C5=O)CC3)CC2)[C@@H](C)CN1Cc1cc2c(c(C(F)(F)F)c1)CN(c1cccc(C3(Cc4nncn4C)COC3)c1)C2=O` (stereo partly drawn) [Example 242, 3-[4-fluoro-1-oxo-5-(4-{[(1rs,4rs)-4-{[(2S,5S)-2,5-dimethyl-4-{[2-(3-{3-[(4-methyl-4H-1,2,4-triazol-3-yl)methyl]oxetan-3-yl}phenyl)-3-oxo-7-(trifluoromethyl)-2,3-dihydro-1H-isoindol-5-yl]methyl}piperazin-1-yl]methyl}cyclohexyl]oxy}piperidin-1-yl)-2,3-dihydro-1H-isoindol-2-yl]piperidine-2,6-dione] showed a DC50 of under 5 nM and a Dmax of over 70%.
`Cn1cnnc1C[C@]1(c2cccc(N3Cc4c(cc(CN5CCN(C[C@H]6CC[C@H](OC7CCN(c8ccc(F)c(C(=O)NC9CCC(=O)NC9=O)c8)CC7)CC6)CC5)cc4C(F)(F)F)C3=O)c2)C[C@H](C#N)C1` (stereo partly shown) [Example 202, N-(2,6-dioxopiperidin-3-yl)-2-fluoro-5-(4-{[(1r,4r)-4-({4-[(3-oxo-2-{3-[(1r,3r)-3-cyano-1-[(4-methyl-4H-1,2,4-triazol-3-yl)methyl]cyclobutyl]phenyl}-7-(trifluoromethyl)-2,3-dihydro-1H-isoindol-5-yl)methyl]piperazin-1-yl}methyl)cyclohexyl]oxy}piperidin-1-yl)benzamide] gave a DC50 of over 500 nM.
Compound `Cn1cnnc1CC1(c2cccc(N3Cc4c(cc(CN5CCC(c6ccc7c(c6)C(=O)N(C6CCC(=O)NC6=O)C7)CC5)cc4C(F)(F)F)C3=O)c2)COC1` (stereo not shown) [Example 36, 3-[6-(1-{[2-(3-{3-[(4-methyl-4H-1,2,4-triazol-3-yl)methyl]oxetan-3-yl}phenyl)-3-oxo-7-(trifluoromethyl)-2,3-dihydro-1H-isoindol-5-yl]methyl}piperidin-4-yl)-1-oxo-2,3-dihydro-1H-isoindol-2-yl]piperidine-2,6-dione] has a DC50 of over 500 nM.
In the case of `Cn1cnnc1C[C@]1(c2cccc(N3Cc4c(cc(CN5CCN(C[C@H]6CC[C@H](OC7CCN(c8ccc(C9CCC(=O)NC9=O)cc8)CC7)CC6)CC5)cc4C(F)(F)F)C3=O)c2)C[C@H](C#N)C1` (stereo partly shown) [Example 206, (1r,3r)-3-[(4-methyl-4H-1,2,4-triazol-3-yl)methyl]-3-(3-{1-oxo-6-[(4-{[(1r,4r)-4-({1-[4-(2,6-dioxopiperidin-3-yl)phenyl]piperidin-4-yl}oxy)cyclohexyl]methyl}piperazin-1-yl)methyl]-4-(trifluoromethyl)-2,3-dihydro-1H-isoindol-2-yl}phenyl)cyclobutane-1-carbonitrile], the DC50 is reported as over 500 nM.
`Cn1cnnc1C[C@]1(c2cccc(N3Cc4c(cc(CN5CCN(C[C@H]6CC[C@H](OC7CCN(c8cccc9c8n(C)c(=O)n9C8CCC(=O)NC8=O)CC7)CC6)CC5(C)C)cc4C(F)(F)F)C3=O)c2)C[C@H](C#N)C1` (stereo partly shown) [Example 274, (1r,3r)-3-(3-{6-[(2,2-dimethyl-4-{[(1r,4r)-4-({1-[1-(2,6-dioxopiperidin-3-yl)-3-methyl-2-oxo-2,3-dihydro-1H-1,3-benzodiazol-4-yl]piperidin-4-yl}oxy)cyclohexyl]methyl}piperazin-1-yl)methyl]-1-oxo-4-(trifluoromethyl)-2,3-dihydro-1H-isoindol-2-yl}phenyl)-3-[(4-methyl-4H-1,2,4-triazol-3-yl)methyl]cyclobutane-1-carbonitrile] showed a DC50 of under 5 nM and a Dmax of over 70%.
`Cc1cc(C2CCN(CC3CCC4(CC3)CN(c3cc5c(c(C(F)(F)F)c3)CN(c3cccc([C@]6(Cc7nncn7C)C[C@@H](C#N)C6)c3)C5=O)C4)CC2)c(F)c2c1C(=O)N(C1CCC(=O)NC1=O)C2` (stereo partly shown) [Example 272, (1r,3r)-3-(3-{6-[7-({4-[2-(2,6-dioxopiperidin-3-yl)-4-fluoro-7-methyl-1-oxo-2,3-dihydro-1H-isoindol-5-yl]piperidin-1-yl}methyl)-2-azaspiro[3.5]nonan-2-yl]-1-oxo-4-(trifluoromethyl)-2,3-dihydro-1H-isoindol-2-yl}phenyl)-3-[(4-methyl-4H-1,2,4-triazol-3-yl)methyl]cyclobutane-1-carbonitrile] showed a DC50 of 5 to 50 nM and a Dmax of 35 to 70%.
`Cn1cnnc1CC1(c2cccc(-n3cc4c(C(F)(F)F)cc(CN5CCC[C@@H](CN6CCC(CN7CCN(c8ccc9c(c8F)CN(C8CCC(=O)NC8=O)C9=O)CC7)CC6)C5)cc4n3)c2)COC1` (stereo partly drawn) [Example 298, 3-(4-fluoro-5-{4-[(1-{[(3S)-1-{[2-(3-{3-[(4-methyl-4H-1,2,4-triazol-3-yl)methyl]oxetan-3-yl}phenyl)-4-(trifluoromethyl)-2H-indazol-6-yl]methyl}piperidin-3-yl]methyl}piperidin-4-yl)methyl]piperazin-1-yl}-1-oxo-2,3-dihydro-1H-isoindol-2-yl)piperidine-2,6-dione] was tested, and the DC50 was over 500 nM.
`CC1c2nc(N3CCC(O[C@H]4CC[C@H](CN5CCN(Cc6ccc7c(n6)C(=O)N(c6cccc(C8(Cc9nncn9C)COC8)c6)C7)CC5)CC4)CC3)ccc2C(=O)N1C1CCC(=O)NC1=O` (stereo partly shown) [Example 151, 3-[7-methyl-2-[4-[4-[[4-[[6-[3-[3-[(4-methyl-1,2,4-triazol-3-yl)methyl]oxetan-3-yl]phenyl]-7-oxo-5H-pyrrolo [3,4-b]pyridin-2-yl]methyl]piperazin-1-yl]methyl]cyclohexoxy]-1-piperidyl]-5-oxo-7H-pyrrolo [3,4-b]pyridin-6-yl]piperidine-2,6-dione] showed a DC50 of 5 to 50 nM and a Dmax of 35 to 70%.
Work on `Cn1cnnc1C[C@]1(c2cccc(N3Cc4c(cc(CN5CCN(C[C@H]6CC[C@H](OC7CCN(c8ccc(C9CCC(=O)NC9=O)nc8)CC7)CC6)CC5)cc4C(F)(F)F)C3=O)c2)C[C@H](C#N)C1` (stereo partly shown) [Example 213, (1r,3r)-3-[(4-methyl-4H-1,2,4-triazol-3-yl)methyl]-3-(3-{1-oxo-6-[(4-{[(1r,4r)-4-({1-[6-(2,6-dioxopiperidin-3-yl)pyridin-3-yl]piperidin-4-yl}oxy)cyclohexyl]methyl}piperazin-1-yl)methyl]-4-(trifluoromethyl)-2,3-dihydro-1H-isoindol-2-yl}phenyl)cyclobutane-1-carbonitrile] yielded a DC50 of over 500 nM.
`Cn1cnnc1CC1(c2cccc(N3Cc4c(cc(CN5CCC(c6ccc7c(c6)CN(C6CCC(=O)NC6=O)C7=O)CC5)cc4C(F)(F)F)C3=O)c2)COC1` (stereo not shown) [Example 34, 3-[5-(1-{[2-(3-{3-[(4-methyl-4H-1,2,4-triazol-3-yl)methyl]oxetan-3-yl}phenyl)-3-oxo-7-(trifluoromethyl)-2,3-dihydro-1H-isoindol-5-yl]methyl}piperidin-4-yl)-1-oxo-2,3-dihydro-1H-isoindol-2-yl]piperidine-2,6-dione] was tested, and the DC50 was over 500 nM.
